The record followed here is patent publication US20250304585A1, “SULFAMATE BASED COVALENT LIGAND-DIRECTED RELEASE (COLDR) COMPOUNDS” (priority 2022, published 2025).

In data set [1] the test system is Mino cells. Description: Proteomic reactivity of model alkyne probes. Type of data set: cell-based. Particulars: compared with 2b.
Data set [2] deals with Mino cells. Description: Competitive pull-down proteomics. In kind it is cell-based. Particulars: 1 μM, fold-enrichment>4 and p-value<0.05.
The next data set has as its target EGFR (Homo sapiens (Human), UniProt P00533). Description: In vitro kinase activity assay with EGFR. Type of data set: biochemical. Particulars: for EGFR/BTK: ratio of off-target/BTK IC50.
A further data set deals with BTK C481S mutant (Homo sapiens (Human), UniProt Q06187, C481S). Put plainly: In vitro kinase activity assay with BTK C481S mutant. In kind it is biochemical. Particulars: for C481S/BTK: ratio of off-target/BTK IC50.
Chain of BTK C481S mutant (Q06187 whole entry C481S, looked up): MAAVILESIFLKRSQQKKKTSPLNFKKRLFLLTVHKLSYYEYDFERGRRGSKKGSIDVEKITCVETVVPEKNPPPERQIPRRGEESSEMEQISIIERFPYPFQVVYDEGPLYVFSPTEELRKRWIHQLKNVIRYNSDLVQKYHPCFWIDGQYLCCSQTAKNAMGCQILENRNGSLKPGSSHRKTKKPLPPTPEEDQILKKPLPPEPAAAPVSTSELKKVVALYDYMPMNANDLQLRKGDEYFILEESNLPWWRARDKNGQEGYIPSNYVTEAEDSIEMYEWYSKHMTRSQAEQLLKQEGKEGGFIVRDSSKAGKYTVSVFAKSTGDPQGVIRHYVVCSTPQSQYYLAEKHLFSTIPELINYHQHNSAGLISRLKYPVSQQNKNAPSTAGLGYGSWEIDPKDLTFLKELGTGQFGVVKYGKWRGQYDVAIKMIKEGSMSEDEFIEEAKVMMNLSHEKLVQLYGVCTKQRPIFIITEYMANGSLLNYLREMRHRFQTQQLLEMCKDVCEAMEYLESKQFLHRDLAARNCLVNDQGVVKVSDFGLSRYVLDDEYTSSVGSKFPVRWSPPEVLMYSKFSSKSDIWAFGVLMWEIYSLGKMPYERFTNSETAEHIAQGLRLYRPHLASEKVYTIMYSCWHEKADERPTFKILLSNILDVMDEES
The target in data set [3] is T1, BTK (Homo sapiens (Human), UniProt Q06187). Description: In vitro kinase activity assay. In kind it is biochemical.
T1 sequence (Q06187 whole entry, looked up, the tested form may be a part): as the sequence (Q06187 whole entry C481S, looked up) above, with S481C counted along it
The next data set addresses BTK kinase domain (Homo sapiens (Human), UniProt Q06187). Put plainly: In-vitro labeling of recombinant BTK, intact protein LC/MS. Type of data set: binding. Particulars: 2 μM BTK, 2 μM compound.
Data set [4] addresses T1, BTK. Description: BTK activity (autophosphorylation) in Mino cells. In kind it is cell-based. Particulars: anti-IgM activation, read-out: IC50 of BTK autophosphorylation inhibition.
Text: The cell pellets were subjected to immunoblotting and performed Western blots for p-BTK, BTK and β-actin.
Cell pellets were washed with ice-cold PBS and lysed using RIPA-buffer (Sigma, R0278). […] EZ-ECL Kit (Biological Industries, 20-500-1000) was used to detect HRP-activity.
Data set [5] in a line: GSH reactivity (consumption) assay. Type of data set: physicochemical. Particulars: for covalent bond formation with GSH: assay conditions or up to 37° C. for 24 h; for GSH reactivity relative to chloroacetamide (1a): model compounds.
Data set [6] addresses BTK (Mus musculus (Mouse), UniProt P35991). Description: BTK engagement in treated mice spleens. Type of data set: in vivo. How it is done:
Lysates were diluted to 2 mg/ml, […] per sample, and incubated for 1 h in room temperature with […] probe 4 to label BTK. Lysates were then clicked to TAMRA-azide and imaged using ChemiDoc MP (546 nm) as described in the In-gel fluorescence protocol.

A short description of data set [7]: Metabolic stability with human liver microsomes. Particulars: five-minute incubation.
Data set [8] has as its system TCL1 adoptive transfer mouse model for CLL. Put plainly: TCL1 adoptive transfer mouse model for CLL. In kind it is in vivo. Particulars: after two weeks of treatment.
[9] abbreviates: BTK C481S mutant, read-out: C481S (IC50 μM).
Setting [10] is: 0.5 nM BTK, 5 μM ATP, read-out: BTK (IC50 μM).

Values joined by “and” are separate entries in the source; they are usually repeats but may differ in a detail not shown here. Equal entries are not always repeated. Where two headings read alike, the source gives them in different places.

A word on the IC50: it is the point on the concentration scale where inhibition reaches its midpoint.

Chain of EGFR (P00533 25-1210): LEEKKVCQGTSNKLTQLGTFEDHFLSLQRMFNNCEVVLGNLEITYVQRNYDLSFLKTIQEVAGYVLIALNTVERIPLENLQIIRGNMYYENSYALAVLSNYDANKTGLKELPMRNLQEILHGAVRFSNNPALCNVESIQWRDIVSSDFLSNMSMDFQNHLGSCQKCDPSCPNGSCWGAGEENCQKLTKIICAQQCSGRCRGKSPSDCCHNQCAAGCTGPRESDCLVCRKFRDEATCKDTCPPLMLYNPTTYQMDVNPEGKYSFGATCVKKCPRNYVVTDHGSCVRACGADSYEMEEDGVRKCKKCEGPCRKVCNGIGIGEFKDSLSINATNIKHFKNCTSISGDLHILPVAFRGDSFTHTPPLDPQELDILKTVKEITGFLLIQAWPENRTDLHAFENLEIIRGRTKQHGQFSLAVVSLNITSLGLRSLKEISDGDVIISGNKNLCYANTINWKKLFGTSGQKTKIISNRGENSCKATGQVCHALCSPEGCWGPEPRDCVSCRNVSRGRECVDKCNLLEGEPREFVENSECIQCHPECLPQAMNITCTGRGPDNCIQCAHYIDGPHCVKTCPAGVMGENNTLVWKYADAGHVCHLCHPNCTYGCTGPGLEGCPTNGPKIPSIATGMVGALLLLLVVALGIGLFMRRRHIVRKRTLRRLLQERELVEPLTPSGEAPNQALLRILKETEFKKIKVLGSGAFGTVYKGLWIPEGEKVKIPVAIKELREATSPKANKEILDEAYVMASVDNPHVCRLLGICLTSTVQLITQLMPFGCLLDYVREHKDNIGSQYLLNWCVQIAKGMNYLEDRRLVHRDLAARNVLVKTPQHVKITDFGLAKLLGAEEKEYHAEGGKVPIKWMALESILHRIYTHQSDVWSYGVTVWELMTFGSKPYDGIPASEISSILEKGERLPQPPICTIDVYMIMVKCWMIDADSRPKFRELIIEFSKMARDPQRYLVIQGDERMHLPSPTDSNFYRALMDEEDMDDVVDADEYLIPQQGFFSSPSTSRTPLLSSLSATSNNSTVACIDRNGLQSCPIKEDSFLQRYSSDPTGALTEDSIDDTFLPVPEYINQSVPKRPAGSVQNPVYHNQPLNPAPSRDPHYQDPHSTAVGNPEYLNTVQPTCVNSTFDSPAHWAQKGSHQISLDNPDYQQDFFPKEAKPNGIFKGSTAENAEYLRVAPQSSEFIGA
Chain of BTK kinase domain (Q06187 402-655): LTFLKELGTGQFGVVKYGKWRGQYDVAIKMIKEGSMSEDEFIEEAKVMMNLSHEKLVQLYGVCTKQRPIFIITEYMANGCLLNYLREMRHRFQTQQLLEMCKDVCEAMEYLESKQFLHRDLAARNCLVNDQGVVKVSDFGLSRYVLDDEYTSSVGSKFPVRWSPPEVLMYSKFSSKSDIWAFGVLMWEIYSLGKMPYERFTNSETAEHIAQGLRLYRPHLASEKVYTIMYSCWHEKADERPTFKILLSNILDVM
Chain of BTK (Mus musculus (Mouse), UniProt P35991) (P35991 whole entry): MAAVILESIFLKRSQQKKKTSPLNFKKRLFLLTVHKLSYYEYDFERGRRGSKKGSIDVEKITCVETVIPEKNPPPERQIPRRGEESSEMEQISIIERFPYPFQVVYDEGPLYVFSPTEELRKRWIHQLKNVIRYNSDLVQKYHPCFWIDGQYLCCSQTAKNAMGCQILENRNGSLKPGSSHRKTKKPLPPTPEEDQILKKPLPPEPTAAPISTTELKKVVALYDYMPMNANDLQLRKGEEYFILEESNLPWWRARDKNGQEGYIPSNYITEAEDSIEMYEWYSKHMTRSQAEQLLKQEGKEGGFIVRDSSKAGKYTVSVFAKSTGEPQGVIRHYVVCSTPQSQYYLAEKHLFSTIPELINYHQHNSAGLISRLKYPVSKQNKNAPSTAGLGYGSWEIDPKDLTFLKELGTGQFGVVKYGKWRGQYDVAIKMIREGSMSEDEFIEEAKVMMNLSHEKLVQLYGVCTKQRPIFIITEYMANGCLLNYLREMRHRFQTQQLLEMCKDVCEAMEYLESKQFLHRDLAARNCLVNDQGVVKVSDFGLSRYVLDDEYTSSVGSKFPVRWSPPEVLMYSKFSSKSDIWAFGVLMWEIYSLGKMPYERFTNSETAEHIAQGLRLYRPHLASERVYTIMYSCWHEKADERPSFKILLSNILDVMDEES

For the compound `C#Cc1ccc(NC(=O)CCl)cc1` [Compound 2c, 2-chloro-N-(4-ethynylphenyl)acetamide], the “proteomic reactivity (proteins enriched)” value with Mino cells [1] was “enriching more proteins”.
In the case of `Nc1ncnc2c1c(-c1ccc(Oc3ccccc3)cc1)nn2[C@@H]1CCCN(C(=O)COS(=O)(=O)NCc2ccccc2)C1` [Compound 3d, (R)-2-(3-(4-amino-3-(4-phenoxyphenyl)-1H-pyrazolo[3,4-d]pyrimidin-1-yl)piperidin-1-yl)-2-oxoethyl benzylsulfamate], in the data set with Mino cells [2], the “number of off-targets (competitive pull-down)” value was determined as 20. In addition, the IC50 against EGFR is 0.533 µM; on BTK C481S mutant (setting [9]), 1.28 µM; on BTK [3] (setting [10]) it was 0.0242 µM and 0.024 µM; at BTK [3] (read-out: IC50 against BTK) it was approximately 0.01 µM. Also, the EGFR/BTK at EGFR came to 22.0. Moreover, on BTK C481S mutant, the “fold potency lost against the C481S mutant” value was 30-85 fold. The C481S/BTK at BTK C481S mutant was 52.8.
For the compound `Nc1ncnc2c1c(-c1ccc(Oc3ccccc3)cc1)nn2[C@@H]1CCCN(C(=O)CS(=O)(=O)c2ccccc2)C1` [Compound 3g, (R)-1-(3-(4-amino-3-(4-phenoxyphenyl)-1H-pyrazolo[3,4-d]pyrimidin-1-yl)piperidin-1-yl)-2-(phenylsulfonyl)ethan-1-one], the “covalent labeling of BTK (LC/MS)” value on BTK kinase domain is recorded as “failed to react covalently with BTK”.
For `CS(=O)(=O)OCC(=O)N1CCC[C@@H](n2nc(-c3ccc(Oc4ccccc4)cc3)c3c(N)ncnc32)C1` [Compound 3b, (R)-2-(3-(4-amino-3-(4-phenoxyphenyl)-1H-pyrazolo[3,4-d]pyrimidin-1-yl)piperidin-1-yl)-2-oxoethyl methanesulfonate], the IC50 is 6 nM on BTK [4]; 0.0464 µM and 0.046 µM at BTK [3] (setting [10]).
Turning to `C#CCOS(=O)(=O)N1CCC[C@@H](n2nc(-c3ccc(Oc4ccccc4)cc3)c3c(N)ncnc32)C1` [Compound 3j, prop-2-yn-1-yl (R)-3-(4-amino-3-(4-phenoxyphenyl)-1H-pyrazolo[3,4-d]pyrimidin-1-yl)piperidine-1-sulfonate], the “reaction with GSH” value in [5] (same conditions as Ibrutinib) is listed as “did not undergo any reaction with GSH”.
Take `CS(=O)(=O)CC(=O)N1CCC[C@@H](n2nc(-c3ccc(Oc4ccccc4)cc3)c3c(N)ncnc32)C1` [Compound 3f, (R)-1-(3-(4-amino-3-(4-phenoxyphenyl)-1H-pyrazolo[3,4-d]pyrimidin-1-yl)piperidin-1-yl)-2-(methylsulfonyl)ethan-1-one]: the “covalent labeling of BTK (LC/MS)” value at BTK kinase domain is reported as “failed to react covalently with BTK”.
For the compound `CNS(=O)(=O)OCC(=O)N1CCC[C@@H](n2nc(-c3ccc(Oc4ccccc4)cc3)c3c(N)ncnc32)C1` [Compound 3c, (R)-2-(3-(4-amino-3-(4-phenoxyphenyl)-1H-pyrazolo[3,4-d]pyrimidin-1-yl)piperidin-1-yl)-2-oxoethyl methylsulfamate], in the data set on Mino cells [2], the “number of off-targets (competitive pull-down)” value is listed as 6. At BTK [6], the “BTK engagement in vivo (ibrutinib-alkyne probe labeling of spleen lysate)” value is recorded as “do not show probe labeling”. The IC50 against EGFR was 0.241 µM; on BTK C481S mutant, 0.74 µM; on BTK [4], 3.6 nM; on BTK [3] (setting [10]) it was 0.00864 µM and 0.0086 µM; at BTK [3] (read-out: IC50 against BTK) it was approximately 0.01 µM. Besides, the EGFR/BTK at EGFR is on record as 27.9. For the same compound, the “remained intact after incubation with human liver microsomes” value in data set [7] was “over 30%”. Further, on BTK C481S mutant, the “fold potency lost against the C481S mutant” value is listed as 30-85 fold. Further, the C481S/BTK at BTK C481S mutant came to 85.6. Also, in [8], the spleen size entry is listed as “visually smaller”.
Take `O=C(CS(=O)(=O)c1ccccc1)NCc1ccccc1` [Compound 1j, N-benzyl-2-(phenylsulfonyl)acetamide]: the “covalent bond formation with GSH” value in data set [5] is recorded as “did not form a covalent bond with GSH”.
For the compound `C#Cc1ccc(NC(=O)COS(=O)(=O)NCc2ccccc2)cc1` [Compound 2a, 2-((4-ethynylphenyl)amino)-2-oxoethyl benzylsulfamate], the “proteomic reactivity (proteins enriched)” value in the data set on Mino cells [1] was “enriching more proteins”.
With `O=C(COS(=O)(=O)NCc1ccccc1)NCc1ccccc1` [Compound 1e, 2-(benzylamino)-2-oxoethyl benzylsulfamate], in data set [5], the “GSH reactivity relative to chloroacetamide (1a)” value is listed as “an order of magnitude less reactivity”.
Turning to `Nc1ncnc2c1c(-c1ccc(Oc3ccccc3)cc1)nn2[C@@H]1CCCN(C(=O)COS(=O)(=O)Nc2ccccc2)C1` [Compound 3e, (R)-2-(3-(4-amino-3-(4-phenoxyphenyl)-1H-pyrazolo[3,4-d]pyrimidin-1-yl)piperidin-1-yl)-2-oxoethyl phenylsulfamate], the IC50 was 1.96 µM against EGFR; 0.275 µM on BTK C481S mutant (setting [9]); 0.0949 µM and 0.095 µM at BTK [3] (setting [10]); 0.1 µM on BTK [3] (read-out: IC50 against BTK). On EGFR, the EGFR/BTK amounted to 20.6. Further, on BTK C481S mutant, the C481S/BTK is listed as 2.9. For the same compound, the “fold weaker IC50 than Ibrutinib” value at BTK [3] is 10 fold.
On to `CNS(=O)(=O)OCC(=O)NCc1ccccc1` [Compound 1d, 2-(benzylamino)-2-oxoethyl methylsulfamate], for which the “GSH reactivity relative to chloroacetamide (1a)” value in data set [5] was “an order of magnitude less reactivity”.
For `CS(=O)(=O)CC(=O)NCc1ccccc1` [Compound 1i, N-benzyl-2-(methylsulfonyl)acetamide], the “covalent bond formation with GSH” value in data set [5] is recorded as “did not form a covalent bond with GSH”.
